{"source": "patent US20250281497A1", "about": "“FUSED AMINO PYRIMIDINE COMPOUNDS FOR TREATMENT OF SEIZURE DISORDERS” (Ovid Therapeutics Inc., priority 2024, published 2025)", "key": {"[1]": {"test_system": "brain slices", "experiment": "In vitro seizure assay, brain slices in 0-Mg ACSF, field recording in entorhinal cortex", "set-up": "species or system mice", "details": "Compound A 1 μM", "source_text": "In vitro seizure assays. […] Slices were then transferred to a Warner Instruments recording chamber and electrodes of 0.5-1 mohm were inserted into layer IIII of the medial entorhinal cortex, several cell layers deep. […] The field recordings were then employed to monitor the development of seizure-like events (SLEs) and their transition to late recurrent discharges (LRDs) which are believed to be analogous to the development of status epilepticus (SE) (Kelley et al., 2016, supra; Moore et al., 2018, supra)."}, "[2]": {"test_system": "KA induced SE", "experiment": "Kainic acid (KA) induced SE, EEG recording, pretreatment", "format": "in vivo, mice", "source_text": "This model was chosen due to the similarities with patients undergoing SE, as KA-induced seizures become refractory to benzodiazepines (BDZs) within minutes (Betjemann and Lowenstein, Lancet Neurol 14, 615-624 (2015); Crawshaw and Cock, (2020a) [Seizure: Eur. J. Epilep. 75 (2020) 145-152] Seizure 80, 282; Lee et at, 2022, supra; Reddy and Kuruba, Int J Mol Sci 14, 18284-18318 (2013)).\n(§1) EEG recordings and analysis. WT C57Bl/6J adult male mice (12 weeks) were anesthetized with isofluorane and implanted with EEG/EMG electrodes and allowed to recover for 7 days prior to experimentation. […] 2h following KA administration mice were injected with a saturating concentration of diazepam (DZ) 10 mg/kg (IP) and recordings were extended for a further 60 min. […] LabChart 8 software was used for data analysis. Epileptiform activity was identified by changes in the amplitude of electrographic activity characterized by consistent changes in the power of the Fast Fourier transform (FFT) of the EEG and abnormal activity characterized by periods of rhythmic spiking lasting longer than 30s (Moore et al., 2017, supra; Silayeva et al., 2015, supra; Sivakumaran et al., J. Neurosci. 35, 8291-8296 (2015)).\nTo provide quantitative insights on the effects of KA, raw EEG recordings were subject to Fast-Fourier transformation (8K FFT size, Hann (cosine-bell), 87.50% window overlap) for frequencies between 0-100 Hz 2h after KA injection (Lee et at, 2022, supra).\n30 or 60 min later mice were injected with KA (20 mg/kg) and 2h later with DZ as detailed above."}, "[3]": {"test_system": "hippocampal neurons", "experiment": "Gramicidin perforated patch clamp, EGABA in hippocampal neurons", "format": "cell-based, Sprague Dawley", "details": "300 nM", "protocol": "Neuronal Cultures. Hippocampal neurons were prepared from Sprague Dawley E18 embryos and plated at 450,000 per dish and maintained at 37° C. in a humidified 5% CO2 incubator for 10-25 days before experimentation (Lee et al., Nat. Neurosci. 14, 736-743 (2011)).\nAt this developmental stage, GABAAR receptor activation leads to hyperpolarization, a phenomenon critically dependent upon KCC2 (Kontou et al., J Biol Chem, 100364 (2021)).\nNeuronal Patch clamp assays. Neuronal cell culture recordings were performed in bath saline at 34° C. For gramicidin perforated-patch experiments, pipettes contained (in mM): 140 KCl and 10 HEPES, pH 7.4 KOH. For whole-cell experiments, pipettes contained (in mM): 115 K-meth-SO^4, 30 KCl, 2 Mg-ATP, 4 Na-ATP, 0.4 Na-GTP, and 10 HEPES, pH 7.4 KOH. Bath saline contained the following (in mM): 140 NaCl, 2.5 KCl, 2.5 CaCl2, 2.5 MgCl2, 10 HEPES, and 11 glucose, pH 7.4 NaOH (Kontou et at, 2021, supra). All compound solutions were applied to cells using a three-barreled 700 μm pipe positioned just above the cell (Warner Instruments). […] All voltages from whole-cell experiments were corrected offline using a calculated liquid junction potential value (13.6 mV) in Clampex (Molecular Devices). For gramicidin perforated-patch experiments, intracellular Cl^− values were back-calculated using measured EGABA values and the Nernst equation: […]"}, "[4]": {"test_system": "KA induced SE", "experiment": "KA induced ongoing SE, EEG recording, treatment 2h after KA", "format": "in vivo, mice", "details": "treatment 2h after KA", "protocol": "as §1\nTo evaluate the potential of KCC2 activators to terminate ongoing SE, the KA model described above was employed. Mice were injected with KA (20 mg/Kg; IP). […] Spectral data were then subjected to FFT and the total EEG power between 1-100 Hz of the 2h following KA treatment (pre-drug) and 30 min following their injection (post-drug) were compared (FIG. 6B). In mice treated with DZ alone variable effects were observed, from large increases to modest reductions in EEG power, but these effects were not significant (FIG. 6C; pre=1.1±0.2×10^−6, post=4.4±7.4×10^−7 μV^2, p=0.214, n=13-14 mice). […] The latency of the treatments to modify EEG power was examined by measuring the time taken for this parameter to be reduced to 50% (FIG. 6E). […] Finally in mice treated with DZ alone 62% were insensitive to the effects of this agent on EEG power."}, "[5]": {"test_system": "PTZ induced motor seizures", "experiment": "Pentylenetetrazol (PTZ) induced convulsions", "format": "in vivo, mice", "details": "12.5 mg/kg IV pretreatment"}}, "data": [{"compound": "C[C@@H]1CN(c2nc3c(c(Nc4ccc(C5CCCCC5)cc4)n2)COC3)CCO1", "note": "[Compound A, (R)—N-(4-cyclohexylphenyl)-2-(2-methylmorpholino)-5,7-dihydrofuro[3,4-d]pyrimidin-4-amine]", "values": [{"measurement": "time to first seizure-like event (SLE)", "setting": "[1]; vehicle=10.5±2.6", "result": "11.3 ± 3.3", "unit": "min"}, {"measurement": "time to late recurrent discharges (LRDs)", "setting": "[1]; vehicle=12.4±4.1", "result": "28.4 ± 6.4", "unit": "min"}, {"measurement": "seizure parameters after injection directly into the hippocampus", "setting": "[2]; 10 μM or 20 μM, 30 or 60 min before KA 20 mg/kg, relative to vehicle", "result": "increased the latency to the 1st seizure, to SE, and reduced the percentage of time in epileptiform activity"}, {"measurement": "latency to the first seizure", "setting": "[2]; 50 mg/kg SC 2h before 20 mg/kg KA IP, vehicle=10.2±2.5", "result": "14.4 ± 2.9", "unit": "min"}, {"measurement": "latency to SE", "setting": "[2]; 50 mg/kg SC 2h before KA, vehicle=38.3±3.4", "result": "54.5 ± 6.9", "unit": "min"}, {"measurement": "time spent in epileptiform activity", "setting": "[2]; 50 mg/kg SC 2h before KA, vehicle=85±5.4", "result": "62.5±8.4", "unit": "%"}, {"measurement": "total EEG power post DZ", "setting": "[2]; mice pretreated with Compound A, then DZ 10 mg/kg IP 2h after KA", "result": "2.7±3.2×10^−7 μV^2"}, {"measurement": "total EEG power 2h after KA (pre DZ)", "setting": "[2]; pretreated with Compound A, vehicle 4.2±2.4×10^−6", "result": "6.9±3.2×10^−7 μV^2"}, {"measurement": "development of refractory status epilepticus (RSE)", "setting": "[2]; pretreatment, 4h later", "result": "prevented the development of refractory status epilepticus (RSE)"}, {"measurement": "reduction in Cl−", "setting": "[3]; 15 min, from EGABA by Nernst equation", "result": "2.2 ± 0.6", "unit": "mM"}, {"measurement": "EGABA at 15 min", "setting": "[3]; from −75±3.1 at 0 min, bumetanide and TTX present", "result": "−85.1±4.2", "unit": "mV"}, {"measurement": "mice insensitive to DZ effects on EEG power", "setting": "[4]", "result": "abolished"}, {"measurement": "dose of PTZ required to induce forelimb clonus", "setting": "[5]; Control=51.5±3.1", "result": "56.3 ± 3.3", "unit": "mg/kg"}, {"measurement": "dose of PTZ required to induce hindlimb clonus", "setting": "[5]; Control=84.5±5.1", "result": "137.4 ± 7.5", "unit": "mg/kg"}]}]}
